The values that follow come from ChEMBL document CHEMBL3045799, “Effect of Candidatus Liberibacter asiaticus infection on susceptibility of Asian citrus psyllid, Diaphorina citri, to selected insecticides” (2011).

What all share (format): functional
Assay [1] deals with Diaphorina citri. Description: Selectivity ratio of LC50 for Diaphorina citri to LC50 for Diaphorina citri infected with Candidatus Liberibacter asiaticus.
Assay [2] concerns Diaphorina citri. Kind of assay: Insecticidal activity against Diaphorina citri assessed as mortality after 48 hr.
For assay [3], the system named is Diaphorina citri. Description: Insecticidal activity against Diaphorina citri infected with Candidatus Liberibacter asiaticus assessed as mortality after 48 hr.

With `CCO[C@@H]1[C@@H](OC)[C@H](C)O[C@@H](O[C@@H]2C[C@H]3CC[C@@H]4[C@@H](C=C5C(=O)[C@H](C)[C@@H](O[C@H]6CC[C@H](N(C)C)[C@@H](C)O6)CCC[C@H](CC)OC(=O)C[C@H]54)[C@@H]3C2)[C@@H]1OC.CCO[C@@H]1[C@@H](OC)[C@H](C)O[C@@H](O[C@H]2C[C@H]3[C@@H]4C=C5C(=O)[C@H](C)[C@@H](O[C@H]6CC[C@H](N(C)C)[C@@H](C)O6)CCC[C@H](CC)OC(=O)C[C@H]5[C@@H]4C=C(C)[C@@H]3C2)[C@@H]1OC`, in the assay on Diaphorina citri [1], the RatioLC50 came to 1.2. The LC50 was found to be 0.48 mgAi/L in the assay with Diaphorina citri [2] and 0.2 mgAi/L with Diaphorina citri [3].
For `CCOP(=S)(OCC)Oc1nc(Cl)c(Cl)cc1Cl` [CHLORPYRIFOS], in that order: 2.8, 0.78 mgAi/L and 0.28 mgAi/L.
Consider `CC1(C)C(C(=O)OC(C#N)c2cccc(Oc3ccccc3)c2)C1(C)C` (configuration not stated) [FENPROPATHRIN], for which the RatioLC50 with Diaphorina citri [1] came out at 1.2. In addition, the LC50 in the assay with Diaphorina citri [2] was 0.06 mgAi/L; with Diaphorina citri [3], 0.05 mgAi/L.
Regarding `O=[N+]([O-])/N=C1\NCCN1Cc1ccc(Cl)nc1` [IMIDACLOPRID], the RatioLC50 in the assay with Diaphorina citri [1] is 3.1. Moreover, the LC50 in the assay on Diaphorina citri [2] worked out at 0.47 mgAi/L; in the assay with Diaphorina citri [3], 0.15 mgAi/L.
